From article PMC1888807 (2007)

Columns and labels:
[1] = tested on: H78 (DNA, G4) TTAGGGTTAGGGTTAGGGTTAGGGTTAGGGTTAGGGTTAGGGTTAGGGTTAGGGTTAGGGTTAGGGTTAGGGTTAGGG; test: melting; conditions: 150 mM Na+; 10 mM Tris-HCl pH 7.5; BMVC:H78 molar ratio 10; ~51 to ~68 °C
[2] = tested on: H24 (DNA, G4) TTAGGGTTAGGGTTAGGGTTAGGG; test: CD melting at 295 nm; conditions: 150 mM Na+; 10 mM Tris-HCl pH 7.5; BMVC:H24 molar ratio 5

C[n+]1ccc(C=Cc2ccc3[nH]c4ccc(C=Cc5cc[n+](C)cc5)cc4c3c2)cc1
melting temperature increase [1]: ~ 17 °C
melting temperature increase [2]: 18 °C
